# In US10925858B2, “S-nitrosoglutathione (GSNO) and GSNO reductase inhibitors for use in therapy” (MUSC FOUNDATION FOR RESEARCH DEVELOPMENT, priority 2017, dated 2021):
# Experiments:
# [1] = test system: protein-associated S-nitrosothiols; experiment: Assay for protein-associated S-nitrosylation (biotin-switch) in hBMVECs; type: cell-based, human; settings: various concentrations, incubated 2 hr
# Protocol: (§1) Cell culture: Primary human brain microvascular endothelial cells (hBMVECs) were purchased from Angio-Proteomie (Cat #: cAP-0002, Atlanta, Ga.). The cells were cultured in cell culture flasks or plates precoated with Quick Coating Solution (Angio-Proteomie; Cat #: cAP-01) and maintained in Endothelial Growth Medium (Angio-Proteomie; Cat #: cAP-02) at 37° C. under 5% CO2/95% air. When the cells were almost confluent, the medium was replaced with endothelial basal medium (Angio-Proteomie; Cat #: cAP-03) containing 0.5% fetal bovine serum (FBS; Life Technologies, Grand Island, N.Y.) about 8-12 hours before the experiment. No institutional approval was required for this study. The study was not pre-registered.
# Assay for protein-associated S-nitrosylation: Protein S-Nitrosylation was analyzed by using biotin-switch method as described in our previous reports (Kim et al., 2014; Prasad et al., 2007). hBMVECs were lysed in 250 mM HEPES, pH 7.7, 1 mM EDTA, 0.1 mM neocuproine, 1% Nonidet P-40, 150 mM NaCl, 1 mM phenylmethanesulfonylfluoride, 20 mM methyl methanethiosulfonate (MMTS), 80 μM carmustine, protease inhibitor mixture (Sigma-Aldrich), and mixed with an equal volume of 25 mM HEPES, pH 7.7, 0.1 mM EDTA, 10 μM neocuproine, 5% SDS, 20 mM MMTS and incubated at 50° C. for 20 min. […] Following acetone precipitation, biotinylated (S-nitrosylated) proteins were analyzed by Western analysis. […]
# [2] = test system: IFN-γ, IL-17; experiment: IFN-γ and IL-17 in spinal cords of passively immunized EAE mice, ELISA; type: in vivo, SJL mice; settings: T cells from GSNO treated vs untreated EAE mice
# Protocol: At the peak of EAE disease, the mice were sacrificed and CD4+ T cells were purified from draining lymph nodes (DLN) and spleens by CD4+ T cell isolation kit (Miltenyi, Auburn. Calif.). The purified T cells (2.5×10^6 cells/ml) were cultured in 96-well round-bottom microculture plates (Falcon Labware, Oxnard, Calif.) in RPMI-complete media containing RPMI 1640 (Life Technologies, Gaithersburg, Md.), 10% FBS, and 100 μg/ml streptomycin and penicillin (Atlanta Biologicals Norcross, Ga.), 1 mM glutamine, 1 mM nonessential amino acids, and 50 μM 2-mercaptoethanol (Sigma-Aldrich). For skewing of different CD4+ T cell subsets and their expansion, the isolated CD4+ T cells were stimulated with PLP139-151 (5 μg/ml) with IL-2 (10 ng/ml) for TH0, IL-2 (10 ng/ml), rhIL-12p35 (10 ng/ml), and anti-IL-4 (1 μg/ml) for TH1, or recombinant mouse IL-12/23p40 homodimer (10 ng/ml), anti-IFN-γ 1 (μg/ml), anti-IL-4 (1 μg/ml) for TO 17. All cytokines and antibodies were purchased from BD Biosciences (San Diego, Calif.). […]
# (20-30×10^6 T cells in 300 μl RPMI media per mouse) were injected to naive SJL female mice (8-10 week old) via intraperitoneal route. […] Clinical EAE disease was measured as describe above.
# [3] = test system: CD4+ T cells; experiment: Ex vivo culture of PLP139-151 immunized T cells from EAE mice, cytokine ELISA; type: in vivo, SJL mice
# [4] = test system: hBMVECs; experiment: Assay of trans-endothelial electrical resistance (TEER) in thrombin treated hBMVECs; type: cell-based, human; settings: thrombin 0.1 unit/ml; GSNO 100 μM or SIN-1 500 μM pretreated 2 hr
# Protocol: as §1, with “pre-registered. For evaluation of the endothelial barrier function, hBMVECs were plated on fibronectin-coated polycarbonate filters (Transwell system, Corning, Midland, N.C.) containing Endothelial Growth Medium (Angio-Proteomie Cat #: cAP-02). The medium was renewed every other day. Five days after seeding, the medium was replaced with Endothelial Basal Medium (Angio-Proteomie Cat #: cAP-03) containing 0.5% FBS and incubated for 2 days. Following drug treatments, transendothelial electrical resistance (TEER) was measured by EVOM2 (Word Precision Instruments) as described previously (Li et al., 2006).” for “pre-registered.”
# [5] = biological target: GSNOR (Homo sapiens, UniProt P11766); settings: description of the compound; cited from earlier work
# Sequence of GSNOR (P11766 whole entry): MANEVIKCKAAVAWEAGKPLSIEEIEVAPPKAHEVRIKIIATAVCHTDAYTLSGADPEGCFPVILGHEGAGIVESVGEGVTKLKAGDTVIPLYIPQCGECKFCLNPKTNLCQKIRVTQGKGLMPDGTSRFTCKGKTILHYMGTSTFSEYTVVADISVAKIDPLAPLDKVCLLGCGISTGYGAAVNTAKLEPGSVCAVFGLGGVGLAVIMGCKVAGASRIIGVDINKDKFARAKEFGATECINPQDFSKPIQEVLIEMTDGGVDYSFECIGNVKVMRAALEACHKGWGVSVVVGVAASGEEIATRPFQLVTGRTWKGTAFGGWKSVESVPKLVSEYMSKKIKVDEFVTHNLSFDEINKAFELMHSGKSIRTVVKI
# [6] = T cells from GSNO (1.0 mg/kg daily from immunization) treated vs untreated EAE mice, TH0 condition
# [7] = T cells from GSNO treated vs untreated EAE mice
Compound,RhoA S-nitrosylation [1],cellular levels of protein-associated S-nitrosothiols [1],IFN-γ in the spinal cords of passively immunized mice [2],IL-17 in the spinal cords of passively immunized mice [2],"IFN-γ production of T cells in response to PLP139-151 stimulation [3, 6]","IL-17 production of T cells in response to PLP139-151 stimulation [3, 6]","GM-CSF production under TH1 and TH17 skewing conditions [3, 7]","IFN-γ production under TH1 skewing conditions [3, 7]","IL-10 production under TH1 and TH17 skewing conditions [3, 7]","IL-17 production under TH17 skewing conditions [3, 7]",thrombin-induced loss of TEER [4],inhibition of GSNOR [5]
"N[C@@H](CCC(=O)N[C@@H](CSN=O)C(=O)NCC(=O)O)C(=O)O [GSNO, S-nitrosoglutathione]",increased,increased,comparable levels,significantly lower levels,comparable levels,significantly lower levels,similarly increased levels,comparable amounts,significantly higher amounts,EAE group produced higher levels of IL-17 than T cells isolated from GSNO+ EAE group,inhibited,
"Cc1cc(C(N)=O)ccc1-n1c(CCC(=O)O)ccc1-c1ccc(-n2ccnc2)cc1 [N6022, reference compound]",,,,,,,,,,,,"very potent, specific, and reversible inhibitor"
